Source: PubChem BioAssay AID743267 (Broad Institute, 2014)

Test system: human bronchial epithelial cells, CFTR corrector, plate reader
Experiment: rescue of ΔF508 CFTR function, airway epithelium – human bronchial epithelial cells, plate reader, cherry-pick, two tests, dose response (AID 743267)
Conditions: measured here: test 1 replicate run

Q: Which AC50 does the source give for `CN1c2ccc(-c3ccc(C#N)cc3)cc2[C@H]2[C@H](CCN2S(=O)(=O)c2cccc(F)c2)[C@H]1CO` here?
A: Its AC50 is 0.128 µM.

Q: Which AC50 does the source give for `C[C@@H]1CN([C@@H](C)CO)C(=O)Cc2cc(N(C)C)ccc2O[C@@H]1CN(C)Cc1ccc(C(=O)Nc2ccccc2N)cc1` here?
A: Its AC50 is 10.3 µM.

Q: With `COc1ccc(S(=O)(=O)N2CC[C@@H]3[C@H](CO)N(C)c4ccc(-c5ccc(F)cc5)cc4[C@@H]32)cc1` as the compound, how does the AC50 read?
A: Its AC50 is 16 µM.

Q: With `N#C[C@@H]1[C@H](c2ccc(-c3cccc(F)c3)cc2)[C@H](CO)N1C(=O)NC1CCCC1` as the compound, how does the AC50 read?
A: Its AC50 is greater than 50 µM.

Q: With `C[C@H]1CCCCO[C@@H](CN(C)C(=O)C2CCCCC2)[C@@H](C)CN([C@@H](C)CO)C(=O)c2cc(NC(=O)Nc3ccc(C(F)(F)F)cc3)ccc2O1` as the compound, how does the AC50 read?
A: Its AC50 is 15.8 µM.

Q: With `COc1ccc(S(=O)(=O)N2CC[C@@H]3[C@@H](CO)Nc4ccc(-c5cccc(C#N)c5)cc4[C@@H]32)cc1` as the compound, how does the AC50 read?
A: Its AC50 is 16 µM.

Q: How did the AC50 turn out when `N#Cc1ccc(-c2ccc3c(c2)[C@H]2[C@H](CCN2S(=O)(=O)c2ccccc2F)[C@@H](CO)N3)cc1` was run?
A: Its AC50 is 6.96 µM.

Q: How did the AC50 turn out when `C[C@H](CO)N1C[C@H](C)[C@H](CN(C)C(=O)NC2CCCCC2)Oc2cc(C#Cc3ccc(F)cc3)ccc2S1(=O)=O` was run?
A: Its AC50 is 7.62 µM.

Q: Which AC50 does the source give for `O=C(C1CC1)N1CC(=O)N2[C@H](CO)[C@@H](c3ccc(-c4ccccc4F)cc3)[C@@H]2C1` here?
A: The AC50 was 8.99 µM.

Q: `COc1ccc(-c2ccc3c(c2)[C@H]2[C@H](CCN2S(=O)(=O)c2ccc(OC)cc2)[C@@H](CO)N3)cc1` was tested. Which AC50 did it give?
A: Its AC50 is 7.37 µM.

Q: Which AC50 does the source give for `COC(=O)C[C@@H]1CC[C@@H]2[C@H](COc3ccc(NC(=O)c4cc(C)on4)cc3C(=O)N2C)O1` here?
A: Its AC50 is 3.67 µM.

Q: `COC(=O)C[C@@H]1CC[C@@H]2[C@H](COc3ccc(NC(=O)c4ccc(C(F)(F)F)cc4)cc3C(=O)N2C)O1` was tested. Which AC50 did it give?
A: The AC50 was 19.2 µM.

Q: `COc1ccc(S(=O)(=O)Nc2ccc3c(c2)C(=O)N([C@@H](C)CO)C[C@@H](C)[C@H](CN(C)Cc2ccc(Oc4ccccc4)cc2)O3)cc1` was tested. Which AC50 did it give?
A: The AC50 was 0.13 µM.

Q: Which AC50 does the source give for `COc1ccccc1S(=O)(=O)N1CC[C@@H]2[C@@H](CO)N(C)c3ccc(-c4ccc(F)cc4)cc3[C@@H]21` here?
A: Its AC50 is 15 µM.

Same assay, conditions: measured here: test 2 replicate run

Q: Which AC50 does the source give for `CN(C[C@H](Cc1ccccc1)N(C[C@H](Cc1ccccc1)N(CCC(C)(C)C)N=O)N=O)N=O` here?
A: Its AC50 is 47.9 µM.

Q: Which AC50 does the source give for `N#C/C(=C(/O)c1ccc(Br)s1)c1nc2ccccc2[nH]1` here?
A: The AC50 was 3.88 µM.

Q: `O=C1c2cccc3c(O)ccc(c23)C(=O)N1c1ccc(Cl)cc1` was tested. Which AC50 did it give?
A: Its AC50 is 16.8 µM.

Q: With `CCOP(=O)(C#Cc1ccccc1)C(O)c1ccc(Br)cc1` (configuration not stated) as the compound, how does the AC50 read?
A: The AC50 was greater than 50 µM.

Q: For `CCCCC(=NCCc1c(C)[nH]c2ccccc12)C1=C(O)CC(c2ccccc2)CC1=O` (configuration not stated), which AC50 is on record?
A: Its AC50 is 3.92 µM.

Q: Which AC50 does the source give for `Cc1ccc(C2(C)NC(=O)N(CC(=O)Nc3nc(-c4ccccn4)cs3)C2=O)cc1` (configuration not stated) here?
A: The AC50 was 4.23 µM.

Q: How did the AC50 turn out when `COc1cccc2c1C(=O)c1c(O)c3c(c(O)c1C2=O)CC(O)(C(C)=O)CC3OC1CC(N(C)C)C(O)C(C)O1` (configuration not stated) was run?
A: The AC50 was 14.8 µM.

Q: With `COc1ccc2[nH]c(C(=O)N/N=C/c3ccc(OC)c(O)c3)cc2c1` as the compound, how does the AC50 read?
A: The AC50 was 0.85 µM.

Q: Which AC50 does the source give for `Brc1ccc2c(c1)C(C1=NCCN1)c1ccccc1CS2` (configuration not stated) here?
A: The AC50 was 16 µM.

Q: How did the AC50 turn out when `COc1cc(C(=O)OCCc2cc3ccccc3c(=O)o2)cc(OC)c1OC` was run?
A: Its AC50 is 1.59 µM.

Q: With `CCN(C(=O)CSc1nnc(C)n1-c1ccc(C)cc1)c1c(N)n(Cc2ccccc2)c(=O)[nH]c1=O` as the compound, how does the AC50 read?
A: The AC50 was greater than 50 µM.

Q: With `COc1ccc(/C=C2\SC(=O)N(CCNC(=O)C3=COCCO3)C2=O)cc1` as the compound, how does the AC50 read?
A: Its AC50 is 1.84 µM.

Q: With `CNc1ccc2c3c(cccc13)C(=O)N(C)C2=O` as the compound, how does the AC50 read?
A: Its AC50 is 7.59 µM.

Q: For `CC1CCN(C(=O)c2ccc(S(=O)(=O)N3CCCC3)cc2)CC1`, which AC50 is on record?
A: The AC50 was greater than 50 µM.

Q: With `COc1cc(C2CC(=O)N(c3ccc(C)cc3)C(=O)C2)cc(OC)c1OC` as the compound, how does the AC50 read?
A: Its AC50 is 2.37 µM.

Q: With `COc1ccc(C2c3ccc4ccccc4c3Oc3ncn(CCCO)c(=N)c32)cc1OC` (configuration not stated) as the compound, how does the AC50 read?
A: Its AC50 is 25.5 µM.

Q: How did the AC50 turn out when `O=C1c2ccccc2C(=O)c2c1cccc2N(CCO)CCO` was run?
A: The AC50 was greater than 50 µM.

Q: Which AC50 does the source give for `Cc1ccc(S(=O)(=O)N2C[C@H]3[C@H]4C(=O)N(C)C(=O)[C@H]4CC(=O)[C@H]3[C@@H]2c2ccccc2F)cc1` here?
A: The AC50 was 37.1 µM.

Q: How did the AC50 turn out when `COc1cccc(N2CCN(C(=O)c3ccc(CS(=O)c4ccc(Cl)cc4)o3)CC2)c1` (configuration not stated) was run?
A: Its AC50 is 1.48 µM.

Q: For `CC(=O)c1cccc(-c2ccnc3c2CC(C(=O)NCc2ccco2)O3)c1` (configuration not stated), which AC50 is on record?
A: Its AC50 is 2.01 µM.

Q: `COc1ccc(C)cc1NC(=O)CNC(c1ccccc1)c1ccc(C)cc1` (configuration not stated) was tested. Which AC50 did it give?
A: Its AC50 is 2.03 µM.

Q: For `CN(C)/C=C1\C=C2C(=O)c3ccccc3N2C1=O`, which AC50 is on record?
A: Its AC50 is 5.5 µM.

Q: `O=C1c2ccccc2C(=O)N1Cc1cnc(N2CCN(c3ccccc3)CC2)s1` was tested. Which AC50 did it give?
A: The AC50 was 44.1 µM.

Q: With `NS(=O)(=O)c1ccc(Cl)c(S(N)(=O)=O)c1` as the compound, how does the AC50 read?
A: Its AC50 is 1.16 µM.

Q: Which AC50 does the source give for `CN(C)CCNc1ccc2ncn3c4ccc(O)cc4c(=O)c1c23` here?
A: The AC50 was 2.03 µM.

Q: `Cc1nc(C)c(C(=O)NN=Cc2ccc(N(CCCl)CCCl)cc2)s1` was tested. Which AC50 did it give?
A: Its AC50 is greater than 50 µM.

Q: How did the AC50 turn out when `COc1ccc([C@H]2CC(=O)C=C(c3c(OC)cccc3OC)C2)cc1` was run?
A: Its AC50 is 6.28 µM.

Q: For `O=C1CCC(CCc2nc3ccccc3[nH]2)(c2ccccc2)C(=O)N1` (configuration not stated), which AC50 is on record?
A: Its AC50 is 36.3 µM.

Q: With `O=C(Cc1ccc(Br)cc1)NCc1ccccc1` as the compound, how does the AC50 read?
A: Its AC50 is 4.85 µM.

Q: For `COc1ccc(N(C)S(=O)(=O)c2cccc(C(=O)NCC3CCCCC3)c2)cc1`, which AC50 is on record?
A: Its AC50 is 48.2 µM.

Q: `CCN(CC)CCC(=O)Nc1cccc2c1C(=O)c1ccccc1C2=O` was tested. Which AC50 did it give?
A: The AC50 was 2.98 µM.

Q: How did the AC50 turn out when `COc1ccc(OC)c(C2CC(c3ccccc3)=NN2C(=S)Nc2ccccc2)c1` (configuration not stated) was run?
A: Its AC50 is 8.44 µM.

Q: Which AC50 does the source give for `CCN(CC(=O)Nc1c(F)cccc1F)C(=O)C1CC1` here?
A: Its AC50 is 33.1 µM.

Q: How did the AC50 turn out when `N#Cc1c(-c2ccc(F)cc2)c(-c2ccc(F)cc2)nn(CCO)c1=O` was run?
A: The AC50 was 2.57 µM.

Q: For `O=C(NCc1ccccc1)C1Cc2c(-c3ccc(Cl)cc3)ccnc2O1` (configuration not stated), which AC50 is on record?
A: Its AC50 is 2.18 µM.

Q: With `C=CCN1C(=O)/C(=C/C=C2/N(CC)c3ccc(S(=O)(=O)N(C)C)cc3N2CC)SC1=S` as the compound, how does the AC50 read?
A: The AC50 was 3.35 µM.

Q: How did the AC50 turn out when `Cc1ccc(-c2csc(Nc3ccccn3)n2)cc1` was run?
A: The AC50 was 26.4 µM.

Q: `O=S1(=O)CCN(C(CO)c2ccccc2)CC1` (configuration not stated) was tested. Which AC50 did it give?
A: The AC50 was 43.3 µM.
